Assay results taken from PMC8315011, “The Spleen Tyrosine Kinase Inhibitor, Entospletinib (GS-9973) Restores Chemosensitivity in Lung Cancer Cells by Modulating ABCG2-mediated Multidrug Resistance” (International Journal of Biological Sciences, 2021).

Key:
ABCG2 [1] = molecular target: T1, ABCG2 (Homo sapiens, UniProt Q9UNQ0); assay: ABCG2 ATPase stimulation in membrane vesicles ([…] of basal); supported by inhibition of [3H]-mitoxantrone efflux in NCI-H460/MX20 cells at […]; format: biochemical; design: membrane vesicles with ABCG2 (PREDEASY ATPase kit)
T1 sequence (Q9UNQ0 1-655): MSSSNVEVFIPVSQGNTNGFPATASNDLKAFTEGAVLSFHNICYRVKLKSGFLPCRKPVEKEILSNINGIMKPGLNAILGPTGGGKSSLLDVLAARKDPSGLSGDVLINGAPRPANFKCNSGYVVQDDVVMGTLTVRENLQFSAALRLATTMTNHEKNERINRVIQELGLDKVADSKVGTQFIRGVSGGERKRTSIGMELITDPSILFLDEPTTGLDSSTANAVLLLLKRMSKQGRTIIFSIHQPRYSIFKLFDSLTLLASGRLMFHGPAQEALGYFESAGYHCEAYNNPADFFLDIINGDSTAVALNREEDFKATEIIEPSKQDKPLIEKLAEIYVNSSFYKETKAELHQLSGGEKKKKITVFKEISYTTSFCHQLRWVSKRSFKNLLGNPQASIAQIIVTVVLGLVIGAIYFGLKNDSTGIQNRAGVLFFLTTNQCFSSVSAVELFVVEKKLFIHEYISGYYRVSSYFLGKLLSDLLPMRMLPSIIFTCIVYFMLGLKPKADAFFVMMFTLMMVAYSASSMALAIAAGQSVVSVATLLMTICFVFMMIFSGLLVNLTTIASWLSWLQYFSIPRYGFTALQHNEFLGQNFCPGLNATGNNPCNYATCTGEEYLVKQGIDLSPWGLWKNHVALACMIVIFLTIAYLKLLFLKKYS

ABCG2 [2] = molecular target: T1, ABCG2

Row | SMILES | EC50 (ABCG2 [1]) [nM] | radiolabelled substrate accumulation and efflux, parental vs ABCG2-overexpressin (ABCG2 [2])
1 | c1cn2cc(-c3ccc4cn[nH]c4c3)nc(Nc3ccc(N4CCOCC4)cc3)c2n1 [GS-9973] | 420 | –
2 | O=C1c2c(O)ccc(O)c2C(=O)c2c(NCCNCCO)ccc(NCCNCCO)c21 [mitoxantrone] | – | proving that the efflux of [^3H]-mitoxantrone was mediated by the ABCG2 transporter
